# Measured values published in US10300055B2, “Treatment of parkinson's disease through ARFGAP1 inhibition” (Dalhousie University, priority 2014, dated 2019).
# Target: T1, hArfGAP1 (human ArfGAP1) (Homo sapiens, UniProt Q8N6T3)
# T1 construct: expressed in transfected cells; host or cells: Saccharomyces cerevisiae strain PPY17:114-3B-141-A (gcs1::NatR, pdr5::HIS3, snq2::TRP1), galactose-induced
# Assay: Yeast growth restoration screen: S. cerevisiae gcs1 knockout strain expressing hArfGAP1
# Assay type: cell-based
# Settings: retest at various concentrations, FIG. 5; A600; compared with 3B-VEC empty vector strain
# Description: Overexpression of heterologous proteins in the yeast Saccharomyces cerevisiae often inhibits its growth, while inhibitors of the overexpressed proteins can restore growth. These simple observations form the basis of a powerful assay to identify inhibitors of such proteins. An expression plasmid for the inducible expression of a gene of interest is introduced into a yeast strain rendered more sensitive to chemicals by deletion of efflux pumps. Protein expression is induced, cells are exposed to test chemicals, and growth is measured by optical density at 600 nm (OD600 or A600) reading.
# In the instant case, a S. cerevisiae gcs1 knockout strain is employed bearing a vector expressing the heterologous protein hArfGAP1 (human ArfGAP1, the human ortholog of yeast GCS1). Generally, expression of ArfGAP1 will suppress growth of gcs1 knockout yeast and thus small molecules that inhibit ArfGAP1 will lead to observable increases in growth. This in turn allows for the direct identification of small molecules that could be used to treat LRRK2-mutation induced PD.
# PPY17:114-3B-vec (gcs1::NatR, pdr5::HIS3, snq2::TRP1, ura3, ade2, carrying plasmid pRS315) [empty vector control strain]; PPY17:114-3B-141-A (gcs1::NatR, pdr5::HIS3, snq2::TRP1, ura3, ade2, carrying plasmid pPP16:141 pGAL1-hArfGAP1) [human ArfGAP1-expressing strain].
# 1. The day before screening, the control strain containing the empty plasmid and the selected test strain bearing the plasmid with the gene of interest were inoculated into 2 mL of SC selection medium containing 2% glucose. Cells were grown overnight at 30° C. with shaking at 220 rpm. Note: it can be observed that the yeast strain expressing human expression vector and the yeast strain containing the empty vector grow at the same rate in glucose, which represses ArfGAP1 expression.
# 4. The pellet was suspended in 1-mL sterile water and the A 600 was measured. […]
# 9. Stacks of five plates were shaken on a vortexer at low speed (e.g., setting 4 of a Genie 2 Vortex mixer) for 90 s to resuspend the yeast cells, and the A 600 was measured using a 96-well plate reader. […]
# T1 sequence (Q8N6T3 whole entry): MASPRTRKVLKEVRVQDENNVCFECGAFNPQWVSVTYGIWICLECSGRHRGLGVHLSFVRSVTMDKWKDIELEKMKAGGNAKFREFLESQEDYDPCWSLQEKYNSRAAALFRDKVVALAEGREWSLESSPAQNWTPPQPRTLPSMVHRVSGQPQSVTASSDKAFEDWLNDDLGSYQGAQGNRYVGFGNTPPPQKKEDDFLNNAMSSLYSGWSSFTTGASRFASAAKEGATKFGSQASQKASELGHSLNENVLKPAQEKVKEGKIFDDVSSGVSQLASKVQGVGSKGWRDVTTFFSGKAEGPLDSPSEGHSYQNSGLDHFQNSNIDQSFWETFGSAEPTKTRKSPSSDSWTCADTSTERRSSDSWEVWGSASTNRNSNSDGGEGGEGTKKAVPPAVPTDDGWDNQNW
row,growth of yeast ArfGAP1 gcs1 knockout strains,SMILES
1,dose-dependent growth,O=[N+]([O-])c1ccc(N2CCN(Cc3cccs3)CC2)cc1 [compound 5261344]
2,dose-dependent growth,CC(=O)c1ccc(N2CCN(CC3=CC[C@H]4C[C@@H]3C4(C)C)CC2)cc1 [compound 5429814]
3,dose-dependent growth,C/C=C(\C)CN1CCN(c2ccc(C(C)=O)cc2)CC1 [compound 5431942]
